{"source": "ChEMBL document CHEMBL3259679", "about": "“Synthesis of novel tricyclic chromenone-based inhibitors of IRE-1 RNase activity” (J Med Chem, 2014)", "key": {"[1]": {"assay": "Upregulation of IRE-1 expression in human Jeko cells at 20 uM after 24 hrs by immunoblotting analysis", "format": "functional, cell-based", "conditions": "JeKo-1"}, "[2]": {"assay": "Upregulation of IRE-1 expression in human Mino cells at 20 uM after 24 hrs by immunoblotting analysis", "format": "functional, cell-based"}, "Mino [3]": {"tested_on": "Mino", "conditions": "Homo sapiens, 20 uM"}, "JeKo-1 [4]": {"tested_on": "JeKo-1", "conditions": "Homo sapiens, 20 uM"}, "B-cell [5]": {"tested_on": "B-cell", "assay": "Inhibition of XBP-1s expression in LPS-stimulated wild-type mouse B lymphocytes at 20 uM after 24 hrs by Western blotting analysis"}, "JeKo-1 [6]": {"tested_on": "JeKo-1", "assay": "cells", "conditions": "Homo sapiens, JeKo-1, 24 h"}, "JeKo-1 [7]": {"tested_on": "JeKo-1", "assay": "Induction of apoptosis in human Jeko cells assessed as PARP cleavage at 50 uM after 72 hrs by immunoblotting analysis", "format": "functional, cell-based"}, "[8]": {"assay": "Growth inhibition of human Jeko cells after 48 hrs by XTT assay", "format": "functional, JeKo-1"}, "[9]": {"assay": "Growth inhibition of human Mino cells after 48 hrs by XTT assay", "format": "functional"}, "B-cell [10]": {"tested_on": "B-cell", "conditions": "Mus musculus, 20 uM"}, "Mino [11]": {"tested_on": "Mino", "assay": "Induction of apoptosis in human Mino cells assessed as PARP cleavage at 50 uM after 72 hrs by immunoblotting analysis", "format": "functional, cell-based"}, "[12]": {"biological_target": "Serine/threonine-protein kinase/endoribonuclease IRE1 (Homo sapiens, UniProt O75460)", "sequence (O75460 whole entry)": "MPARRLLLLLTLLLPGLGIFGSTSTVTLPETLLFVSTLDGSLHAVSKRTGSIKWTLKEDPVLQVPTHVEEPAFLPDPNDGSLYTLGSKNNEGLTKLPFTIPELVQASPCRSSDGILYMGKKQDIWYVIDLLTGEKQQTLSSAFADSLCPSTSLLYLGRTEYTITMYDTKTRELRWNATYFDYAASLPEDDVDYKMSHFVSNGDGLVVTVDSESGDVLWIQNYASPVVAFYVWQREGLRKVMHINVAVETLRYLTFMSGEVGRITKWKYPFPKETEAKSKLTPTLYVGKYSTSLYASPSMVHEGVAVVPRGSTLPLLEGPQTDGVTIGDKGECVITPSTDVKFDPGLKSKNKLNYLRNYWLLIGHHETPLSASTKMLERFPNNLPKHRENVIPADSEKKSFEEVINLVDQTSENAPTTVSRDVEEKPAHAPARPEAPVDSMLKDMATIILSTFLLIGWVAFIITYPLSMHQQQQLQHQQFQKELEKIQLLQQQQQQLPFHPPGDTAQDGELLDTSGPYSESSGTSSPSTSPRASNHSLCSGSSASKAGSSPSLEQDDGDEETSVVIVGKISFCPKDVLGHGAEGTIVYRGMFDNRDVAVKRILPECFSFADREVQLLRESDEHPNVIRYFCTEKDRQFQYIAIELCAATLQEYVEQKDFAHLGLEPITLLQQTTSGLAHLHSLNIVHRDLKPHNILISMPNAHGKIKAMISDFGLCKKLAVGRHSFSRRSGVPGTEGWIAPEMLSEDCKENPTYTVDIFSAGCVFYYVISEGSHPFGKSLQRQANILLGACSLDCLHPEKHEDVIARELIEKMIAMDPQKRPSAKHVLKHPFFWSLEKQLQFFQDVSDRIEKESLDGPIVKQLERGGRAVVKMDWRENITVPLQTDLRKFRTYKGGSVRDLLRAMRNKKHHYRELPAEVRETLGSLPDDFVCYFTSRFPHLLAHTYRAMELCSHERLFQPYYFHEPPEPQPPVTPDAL", "assay": "Inhibition of human recombinant puritin-His-tagged IRE-1 RNase expressed in SF21 cells using XBP-1 RNA stem loop as substrate incubated for 30 mins prior to substrate addition measured after 2 hrs by FRET-suppression assay"}, "[13]": {"assay": "Drug degradation after 12 hrs by LC-MS analysis", "format": "physicochemical"}}, "note": "Calls of active or inactive are those of the source. No cut-off for these calls is given here."}
{"molecule": "C=CCOC(=O)N1CCc2c(c(=O)oc3c(C=O)c(O)ccc23)C1", "values": [{"measurement": "Activity", "setting": "[1]", "result": "Active"}, {"measurement": "Activity", "setting": "[2]", "result": "Active"}, {"measurement": "inhibition", "setting": "Mino [3]", "result": "Active"}, {"measurement": "inhibition", "setting": "JeKo-1 [4]", "result": "Active"}, {"measurement": "inhibition", "setting": "B-cell [5]", "result": "Active"}]}
{"molecule": "Cc1cc(=O)oc2c(C=O)c(O)ccc12", "values": [{"measurement": "IC50", "setting": "JeKo-1 [6]", "result": 1570, "unit": "nM"}, {"measurement": "inhibition", "setting": "B-cell [5]", "result": "Active"}]}
{"molecule": "CN1CCc2c(c(=O)oc3c(C=O)c(O)ccc23)C1", "values": [{"measurement": "Activity", "setting": "JeKo-1 [7]", "result": "Active"}, {"measurement": "Activity", "setting": "[1]", "result": "Active"}, {"measurement": "Activity", "setting": "[2]", "result": "Active"}, {"measurement": "GI", "setting": "[8]", "result": 66, "unit": "µM"}, {"measurement": "GI", "setting": "[9]", "result": 55, "unit": "µM"}, {"measurement": "inhibition", "setting": "B-cell [10]", "result": "Active"}, {"measurement": "Activity", "setting": "Mino [11]", "result": "Active"}, {"measurement": "inhibition", "setting": "Mino [3]", "result": "Active"}, {"measurement": "inhibition", "setting": "JeKo-1 [4]", "result": "Active"}]}
{"molecule": "CC(=O)N1CCc2c(c(=O)oc3c(C=O)c(O)ccc23)C1", "values": [{"measurement": "Activity", "setting": "[1]", "result": "Active"}, {"measurement": "Activity", "setting": "[2]", "result": "Active"}, {"measurement": "inhibition", "setting": "B-cell [10]", "result": "Active"}, {"measurement": "inhibition", "setting": "Mino [3]", "result": "Active"}, {"measurement": "inhibition", "setting": "JeKo-1 [4]", "result": "Active"}]}
{"molecule": "C=CCOC(=O)N1CCc2c(c(=O)oc3c(/C=C/C(=O)OCC)c(O)ccc23)C1", "values": [{"measurement": "inhibition", "setting": "B-cell [10]", "result": "inactive"}]}
{"molecule": "C=CCOC(=O)N1CCc2c(c(=O)oc3c(C=O)c(OCc4ccccc4)ccc23)C1", "values": [{"measurement": "IC50", "setting": "[12]", "result": "> 20000", "unit": "nM"}]}
{"molecule": "C=CCOC(=O)N1CCc2c(c(=O)oc3c(C(=O)O)c(O)ccc23)C1", "values": [{"measurement": "inhibition", "setting": "B-cell [10]", "result": "inactive"}]}
{"molecule": "C=CCOC(=O)N1CCc2c(c(=O)oc3c(C(=O)OC)c(O)ccc23)C1", "values": [{"measurement": "inhibition", "setting": "B-cell [10]", "result": "inactive"}]}
{"molecule": "C=CCOC(=O)N1CCc2c(c(=O)oc3c(C4OCCCO4)c(O)ccc23)C1", "values": [{"measurement": "Stability", "setting": "[13]", "result": "Stable"}, {"measurement": "inhibition", "setting": "B-cell [5]", "result": "Active"}]}
